{"source": "paper PMC7782499", "about": "“Progerinin, an optimized progerin-lamin A binding inhibitor, ameliorates premature senescence phenotypes of Hutchinson-Gilford progeria syndrome” (Communications Biology, 2021)", "test_system": "Sprague-Dawley rats", "assay": "Single oral gavage dose toxicity study in SD rats", "assay_type": "in vivo", "settings": "for Mortality: Day 1-7; for External Gross Observation: No gross findings (animals of 3) / Internal Gross Observation: No gross findings (animals of 3): Sprague-Dawley, 7 day", "description": "The protocol and procedures involving the care and use of animals in this study was reviewed and approved by IACUC of QuBEST BIO prior to conduct (Approval no.: QBSIACUC-A18122). During the study, the care and use of animals will be conducted in accordance with all applicable guidelines of Animal Welfare Act. Eleven specific pathogen-gree Sprague-Dawley rats (~6 weeks old) were obtained from SAMTAKO Ltd. (Osan, Korea) and nine rats were used for the study. […] Food was withheld for a further 3–4 h after dosing. Each dose was based on the most recent body weight of each animal and the dose volume was […]. The dosing day was designated as Day 1. All animals were observed twice daily for mortality and moribundity during the study. A clinical observation was performed for all animals at the time of dosing and approximately 1, 2, and 4 h post-dose on dosing day, and once daily during 7-day observation period. Observations were included, but are not limited to, changes in the skin, fur, eyes and mucous membrane; respiratory, circulatory, autonomic and central nervous system function; somatomotor activity and behavior patterns. Individual body weights were measured for all animals on the day of animal receipt, randomization, prior to dosing start (Day 1) and study period (Days 4 and 7). Those animals survived on completion of the 7-day observation period were weighed body weight prior to necropsy and CO2 inhalation anesthesia and exsanguinated from the abdominal aorta. In order to avoid autolytic change, a complete gross pathology examination of the carcass was performed as soon as possible after euthanasia of all animals. Necropsy was consisted of an external examination, including identification of all clinically recorded lesions, as well as a detailed internal examination. Toxicity studies were performed by QuBEST BIO Co., Ltd (Yongin, Korea).\nThe objective of this study was to investigate the potential acute toxicity or approximate lethal dose of SLC-D011 following a single oral gavage administration to the SD rats.\nThe study group is detailed in Text Table 1.\nText Table 1. Study Group\nThe following parameters were evaluated: mortality (twice daily), clinical signs (1, 2, and 4 ho urs post-dose on dosing day, and once daily during 7-day period), body weights (on Days 1, 4 and 7), and […]\nMortality and Clinical Observation […]\nThe oral gavage route was selected since it is the intended route of administration in humans. […]\nThe study groups and dose level were assigned as below after consultation with the Sponsor. […]\nAfter overnight fasting (approximately 16 hours, food but not water should be withheld overnight), test article formulations were dosed using a plastic disposable feeding needle attached to a plastic disposable syringe. Food was withheld for a further 3~4 hours after dosing. Each dose was based on the most recent body weight of each animal and the dose volume was 10 mL/kg. The dosing day was designated as study Day 1.\nAll animals were observed twice daily [once (am) on weekend and holiday] for mortality and moribundity during the study.\nA clinical observation was performed for all animals at the time of dosing and approximately 1, 2 and 4 hours post-dose on dosing day, and once daily during 7-day observation period.", "key": {"[1]": {"settings": "female, rat, in vivo, 500 mg/kg"}}, "data": [{"smiles": "CC1(C)Oc2cc3oc(=O)ccc3cc2C[C@@H]1OC/C=C/c1ccccc1", "note": "[SLC-D011]", "values": [{"measurement": "Mortality", "setting": "female rats, 500 mg/kg", "value": "0/3"}, {"measurement": "Mortality", "setting": "female rats, 2,000 mg/kg", "value": "0/3"}, {"measurement": "External Gross Observation: No gross findings (animals of 3)", "setting": "[1]", "value": 3}, {"measurement": "Internal Gross Observation: No gross findings (animals of 3)", "setting": "[1]", "value": 3}, {"measurement": "Mortality", "setting": "male rats, 500 mg/kg", "value": "0/3"}, {"measurement": "Mortality", "setting": "male rats, 2,000 mg/kg", "value": "0/3"}, {"measurement": "External Gross Observation: No gross findings (animals of 3)", "setting": "male, rat, in vivo, 500 mg/kg", "value": 3}, {"measurement": "Internal Gross Observation: No gross findings (animals of 3)", "setting": "male, rat, in vivo, 500 mg/kg", "value": 3}, {"measurement": "Clinical Observation", "setting": "rat, in vivo, 500 mg/kg", "value": "Appears Normal"}, {"measurement": "Tolerability", "setting": "single oral gavage at 500 and 2,000 mg/kg", "value": "well tolerated"}, {"measurement": "Approximate lethal dose (ALD)", "setting": "single oral gavage, both sexes", "value": "> 2,000 mg/kg"}]}]}
